In one assay the test system is OVCAR-3. Nature of the assay: NCI SRB cytotoxicity, OVCAR-3 (ovarian). The assay is classed as cell-based, human. The conditions noted are these: 48 hrs exposure. The protocol:
(§1) Biological Activity: The in vitro biological activity studies were carried out at the National Cancer Institute, Maryland, USA.
(§2) The C8-linked isoxazoline-PBD hybrids have been tested against sixty human tumour cell lines derived from nine cancer types (leukemia, non-small cell lung cancer, colon cancer, CNS cancer, melanoma, ovarian cancer, renal cancer, prostate cancer and breast cancer) as per NCI protocol. For each compound, dose response curves for individual cell lines have been measured at a minimum of five concentrations at 10 fold dilutions. A protocol of 48 hrs continuous drug exposure has been used, and a sulforhodamine B (SRB) protein assay was used to estimate cell viability or growth. The concentration for 50% cell growth inhibition (GI50), total cell growth inhibition (TGI, 0% growth) and 50% cell death (LC50, […]) compared with the control has been calculated (FIG. 2).
(§3) Compound 5b and 9b have been evaluated for in vitro cytotoxicity in sixty cell lines from nine human cancer types of lung (Hop-62, NCI-H226, NCI-H522), leukemia (K-562, SR), colon (HCT-116, HCT-15, HCC-2998), CNS(SF-539), melanoma (SK-MEL-5, UACC-62, M14), ovarian (IGROV1), renal (A498), prostate (PC3) breast (BT-549, MDA-MB-435, HS578T) origin. The results are expressed as percent of cell growth determined relative to that of untreated control cells (Table 1).

Assay [1] has as its system duplex-form calf thymus DNA (CT-DNA). Description: Thermal denaturation studies with calf thymus DNA. The assay is classed as binding. The conditions noted are these: [PBD]:[DNA] molar ratio 1:5, CT-DNA 100 μM, ligand 20 μM, pH 7.00. On the procedure:
Compounds have been subjected to thermal denaturation studies with duplex-form calf thymus DNA (CT-DNA) using a modification of a reported procedure. Working solutions in aqueous buffer (10 mM NaH2PO4/Na2HPO4, 1 mM Na2EDTA, pH 7.00+0.01) containing CT-DNA (100 (μm in phosphate) and the PBD (20(μm) have been prepared by addition of concentrated PBD solutions in DMSO to obtain a fixed [PBD]/[DNA] molar ratio of 1:5. The DNA-PBD solutions have been incubated at 37° C. for 0 and 18 hrs prior to analysis. Samples have been monitored at 260 nm using a Beckman DU-800 spectrophotometer fitted with high performance temperature controller, and heated at 1° C. min^−1 in the 40-110° C. range. DNA helix→coil transition temperatures (Tm) have been obtained from the maxima in the d(A260)/d T derivative plots. Drug-induced alterations in DNA melting behavior are given by: ΔTm=Tm(DNA+PBD)−Tm(DNA alone), where the Tm value for the PBD-free CT-DNA is 68.5±0.01.
The DNA-binding for these novel C8-linked isoxazoline-PBD hybrids has been examined by thermal denaturation studies using calf thymus CT-DNA. […] Data for 5a-c, 9b and 9g and DC-81 are included in Table 4 for comparison.

The next assay relates to A498. Description: NCI SRB cytotoxicity, A498 (renal). It is filed as cell-based, human. The conditions noted are these: 48 hrs exposure. On the procedure:
as §1, §2, §3

As for `COc1ccc(C2CC(c3ccc(OC)c(OC)c3OC)=NO2)cc1OCCCCOc1cc2c(cc1OC)C(=O)N1CCC[C@H]1C=N2` (stereo partly drawn) [Compound 9b, (11aS)-7-(methyloxy)-8-(4-[(2-(methyloxy)-5-3-[2,3,4-tri(methyloxy)phenyl]-4,5-dihydro-5-isoxazolylphenyl)oxy]butyloxy)-2,3,5,11a-tetrahydro-1H-benzo[e]pyrrolo[1,2-a][1,4]diazepin-5-one], the GI50 in the assay with OVCAR-3 came out at 1940 nM; with A498 it was 1720 nM. Besides, the “ΔTm after incubation at 37° C. for 0 hrs” value in assay [1] stood at 1.2 °C. Further, the “ΔTm after incubation at 37° C. for 18 hrs” value in assay [1] was 2.3 °C.
In the assay with OVCAR-3, `COc1cc(C2=NOC(c3cc(OC)c(OC)c(OC)c3)C2)ccc1OCCCCOc1cc2c(cc1OC)C(=O)N1CCC[C@H]1C=N2` (stereo partly drawn) [Compound 5b, (11aS)-7-(methyloxy)-8-(4-[(2-(methyloxy)-4-5-[3,4,5-tri(methyloxy)phenyl]-4,5-dihydro-3-isoxazolylphenyl)oxy]butyloxy)-2,3,5,11a-tetrahydro-1H benzo[e]pyrrolo[1,2-a][1,4]diazepin-5-one] yielded a concentration for 50% growth inhibition (GI50) of 270 nM. In assay [1], the “ΔTm after incubation at 37° C. for 0 hrs” value was determined as 4.1 °C and the “ΔTm after incubation at 37° C. for 18 hrs” value is 6.2 °C.

In general, GI50 refers to the concentration giving 50% growth inhibition. A higher GI50 goes with lower sensitivity of the cells.
